In ChEMBL document CHEMBL5465560, “Selectivity Literature for EUbOPEN Chemogenomic Library” (2024):

Key:
[1] = system: Proto-oncogene tyrosine-protein kinase receptor Ret (Homo sapiens), P07949 [M918T]; test: (§1) Selectivity interaction (KinomeScan (DiscoverX)) EUB0000092b RET; settings: at 10 µM
[2] = system: Proto-oncogene tyrosine-protein kinase receptor Ret (Homo sapiens), P07949 [V804M]; test: as §1; settings: at 10 µM
[3] = target: T1, Proto-oncogene tyrosine-protein kinase receptor Ret (Homo sapiens, UniProt P07949); test: as §1; settings: at 10 µM
[4] = system: Proto-oncogene tyrosine-protein kinase receptor Ret (Homo sapiens), P07949 [V804L]; test: as §1; settings: at 10 µM
[5] = target: Mitogen-activated protein kinase 9 (Homo sapiens, UniProt P45984); test: Selectivity interaction (Upstate Kinase Profiler service (Millipore)) EUB0000056c MAPK9; settings: at 1 µM
[6] = target: Mitogen-activated protein kinase kinase kinase 21 (Homo sapiens) (UniProt Q5TCX8); test: Selectivity interaction (Kinase panel (KiNativ target engagement assay in Jurkat cells)) EUB0001635a MAP3K21; type: cell-based; settings: Selectivity number of off-targets 0.0, Selectivity number of targets 233.0, Source Knowledge https://www.sciencedirect.com/science/article/pii/S2451945619300674?via%3Dihub, at 1 µM
[7] = target: T2, Dual specificity mitogen-activated protein kinase kinase 6 (Homo sapiens) (UniProt P52564); test: Selectivity interaction (Kinase panel (KiNativ target engagement assay in Jurkat cells)) EUB0001635a MAP2K6; type: cell-based; settings: Selectivity number of off-targets 0.0, Selectivity number of targets 233.0, Source Knowledge https://www.sciencedirect.com/science/article/pii/S2451945619300674?via%3Dihub, at 1 µM
T2 sequence (whole entry): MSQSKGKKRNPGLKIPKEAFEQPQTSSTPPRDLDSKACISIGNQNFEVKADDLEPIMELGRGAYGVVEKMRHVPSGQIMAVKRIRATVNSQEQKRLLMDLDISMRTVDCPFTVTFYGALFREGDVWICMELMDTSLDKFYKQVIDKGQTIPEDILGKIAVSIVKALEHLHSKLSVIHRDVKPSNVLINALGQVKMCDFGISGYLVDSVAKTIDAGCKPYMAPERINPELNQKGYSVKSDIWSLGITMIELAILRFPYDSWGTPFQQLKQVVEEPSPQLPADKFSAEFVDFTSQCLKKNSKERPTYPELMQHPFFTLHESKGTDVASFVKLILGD

[8] = target: Serine/threonine-protein kinase 26 (Homo sapiens, UniProt Q9P289); test: Selectivity interaction (ActivX KiNativ screen (kinase selectivity in THP-1 cell lysates)) EUB0000639a STK26; type: subcellular; settings: lysate, at 0.04 µM
[9] = target: Cyclin-dependent kinase 2 (Homo sapiens, UniProt P24941); test: Selectivity interaction (ActivX KiNativ screen (kinase selectivity in THP-1 cell lysates)) EUB0000639a CDK2; type: subcellular; settings: lysate
[10] = target: T3, Ephrin type-B receptor 3 (Homo sapiens) (UniProt P54753); test: Selectivity interaction (Kinase panel (Invitrogen)) EUB0000639a EPHB3; settings: at 200 nM
T3 sequence (whole entry): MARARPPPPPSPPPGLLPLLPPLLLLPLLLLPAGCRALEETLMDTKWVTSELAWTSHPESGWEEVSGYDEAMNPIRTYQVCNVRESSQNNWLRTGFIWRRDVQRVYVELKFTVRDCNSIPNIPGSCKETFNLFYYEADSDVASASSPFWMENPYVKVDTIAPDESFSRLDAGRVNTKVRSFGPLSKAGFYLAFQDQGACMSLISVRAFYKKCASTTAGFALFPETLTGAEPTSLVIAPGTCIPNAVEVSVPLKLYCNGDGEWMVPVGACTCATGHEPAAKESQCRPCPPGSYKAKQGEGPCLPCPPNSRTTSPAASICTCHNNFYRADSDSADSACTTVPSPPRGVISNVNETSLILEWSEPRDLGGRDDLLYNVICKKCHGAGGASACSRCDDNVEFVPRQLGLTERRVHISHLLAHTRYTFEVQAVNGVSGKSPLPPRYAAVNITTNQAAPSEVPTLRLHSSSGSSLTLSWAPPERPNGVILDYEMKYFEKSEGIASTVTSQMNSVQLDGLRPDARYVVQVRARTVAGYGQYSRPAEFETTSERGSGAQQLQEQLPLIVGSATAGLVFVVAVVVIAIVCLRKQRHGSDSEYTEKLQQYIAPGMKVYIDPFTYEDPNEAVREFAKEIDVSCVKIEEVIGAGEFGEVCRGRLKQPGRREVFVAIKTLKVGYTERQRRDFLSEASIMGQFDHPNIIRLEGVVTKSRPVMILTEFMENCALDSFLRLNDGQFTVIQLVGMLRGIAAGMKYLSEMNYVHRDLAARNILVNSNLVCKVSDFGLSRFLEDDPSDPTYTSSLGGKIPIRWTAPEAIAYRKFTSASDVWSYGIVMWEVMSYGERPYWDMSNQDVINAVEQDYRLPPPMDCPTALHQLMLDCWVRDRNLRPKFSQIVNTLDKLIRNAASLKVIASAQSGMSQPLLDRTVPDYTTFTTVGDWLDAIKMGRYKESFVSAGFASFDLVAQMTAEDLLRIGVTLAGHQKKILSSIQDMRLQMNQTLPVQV

[11] = target: T4, Serine/threonine-protein kinase Sgk2 (Homo sapiens) (UniProt Q9HBY8); test: Selectivity interaction (KinomeScan (DiscoverX)) EUB0001049a SGK2; settings: at 1 µM
T4 sequence (whole entry): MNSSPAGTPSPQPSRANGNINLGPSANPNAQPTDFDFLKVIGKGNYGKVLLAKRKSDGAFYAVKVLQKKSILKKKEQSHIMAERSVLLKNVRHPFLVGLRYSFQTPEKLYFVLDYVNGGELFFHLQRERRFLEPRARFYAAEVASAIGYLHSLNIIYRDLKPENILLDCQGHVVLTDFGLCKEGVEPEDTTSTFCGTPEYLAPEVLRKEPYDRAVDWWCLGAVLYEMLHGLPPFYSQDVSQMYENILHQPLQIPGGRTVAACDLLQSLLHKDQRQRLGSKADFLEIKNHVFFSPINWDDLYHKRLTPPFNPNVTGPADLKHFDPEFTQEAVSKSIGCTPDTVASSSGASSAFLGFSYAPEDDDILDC

[12] = target: T1, Proto-oncogene tyrosine-protein kinase receptor Ret; test: Selectivity interaction (Kinase screening (Nanosyn)) EUB0000604a RET
[13] = target: Cyclin-dependent kinase 1 (Homo sapiens) (UniProt P06493); test: Selectivity interaction (ActivX KiNativ screen (ex vivo kinase selectivity in human PBMCs)) EUB0001619a CDK1; type: cell-based; settings: PBMC, at 1 µM
Sequence of Cyclin-dependent kinase 1 (Homo sapiens) (P06493 whole entry, looked up): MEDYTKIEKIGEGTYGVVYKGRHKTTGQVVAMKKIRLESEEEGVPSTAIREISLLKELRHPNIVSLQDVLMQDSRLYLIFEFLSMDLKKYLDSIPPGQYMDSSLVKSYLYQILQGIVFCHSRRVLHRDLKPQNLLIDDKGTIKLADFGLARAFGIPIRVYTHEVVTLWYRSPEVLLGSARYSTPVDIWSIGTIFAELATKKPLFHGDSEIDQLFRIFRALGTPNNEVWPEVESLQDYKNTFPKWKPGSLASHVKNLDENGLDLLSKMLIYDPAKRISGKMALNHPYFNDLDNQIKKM

T1 sequence (P07949 whole entry): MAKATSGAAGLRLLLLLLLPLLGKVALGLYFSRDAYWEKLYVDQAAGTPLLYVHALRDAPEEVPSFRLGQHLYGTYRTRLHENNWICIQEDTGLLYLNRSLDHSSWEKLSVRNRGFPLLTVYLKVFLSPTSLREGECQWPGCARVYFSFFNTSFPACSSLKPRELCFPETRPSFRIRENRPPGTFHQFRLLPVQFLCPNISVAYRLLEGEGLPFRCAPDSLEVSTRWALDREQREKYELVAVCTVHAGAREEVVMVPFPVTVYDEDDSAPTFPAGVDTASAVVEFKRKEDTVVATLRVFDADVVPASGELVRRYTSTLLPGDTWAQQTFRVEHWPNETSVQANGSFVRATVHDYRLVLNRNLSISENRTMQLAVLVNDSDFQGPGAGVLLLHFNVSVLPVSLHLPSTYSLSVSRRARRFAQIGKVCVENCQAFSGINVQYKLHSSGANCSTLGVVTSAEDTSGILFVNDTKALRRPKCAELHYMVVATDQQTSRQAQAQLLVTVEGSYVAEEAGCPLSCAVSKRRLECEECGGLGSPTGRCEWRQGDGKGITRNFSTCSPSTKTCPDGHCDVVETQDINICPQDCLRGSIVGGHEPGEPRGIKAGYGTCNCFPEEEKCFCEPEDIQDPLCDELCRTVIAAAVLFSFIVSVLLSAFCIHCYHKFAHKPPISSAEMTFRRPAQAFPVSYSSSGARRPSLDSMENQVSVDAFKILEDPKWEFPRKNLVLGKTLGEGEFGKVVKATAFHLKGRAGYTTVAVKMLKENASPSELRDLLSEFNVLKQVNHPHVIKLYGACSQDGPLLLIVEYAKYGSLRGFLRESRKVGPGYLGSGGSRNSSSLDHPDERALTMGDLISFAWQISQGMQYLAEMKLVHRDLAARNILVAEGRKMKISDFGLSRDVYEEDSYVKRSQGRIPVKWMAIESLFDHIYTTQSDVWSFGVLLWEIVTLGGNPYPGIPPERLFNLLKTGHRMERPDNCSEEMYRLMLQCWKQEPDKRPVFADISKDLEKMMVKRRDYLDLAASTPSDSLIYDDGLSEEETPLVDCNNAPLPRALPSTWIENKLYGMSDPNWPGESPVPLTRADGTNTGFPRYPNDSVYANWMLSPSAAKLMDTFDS
Sequence of Mitogen-activated protein kinase 9 (P45984 whole entry, looked up): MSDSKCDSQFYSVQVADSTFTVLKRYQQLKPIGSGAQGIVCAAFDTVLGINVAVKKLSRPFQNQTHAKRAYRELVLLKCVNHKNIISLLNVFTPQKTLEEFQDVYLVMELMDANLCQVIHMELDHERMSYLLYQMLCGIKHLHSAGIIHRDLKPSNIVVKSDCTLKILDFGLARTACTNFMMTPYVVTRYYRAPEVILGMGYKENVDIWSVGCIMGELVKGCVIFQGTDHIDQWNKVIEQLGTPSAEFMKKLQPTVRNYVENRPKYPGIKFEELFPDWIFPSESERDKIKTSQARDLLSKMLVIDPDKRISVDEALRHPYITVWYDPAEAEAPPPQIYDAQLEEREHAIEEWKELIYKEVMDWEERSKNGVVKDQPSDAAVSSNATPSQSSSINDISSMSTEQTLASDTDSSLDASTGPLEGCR
Sequence of Proto-oncogene tyrosine-protein kinase receptor Ret (Homo sapiens), P07949 [M918T] (P07949 whole entry M918T): as the sequence (P07949 whole entry) above, with M918T counted along it
Sequence of Serine/threonine-protein kinase 26 (Q9P289 2-416 limits assumed): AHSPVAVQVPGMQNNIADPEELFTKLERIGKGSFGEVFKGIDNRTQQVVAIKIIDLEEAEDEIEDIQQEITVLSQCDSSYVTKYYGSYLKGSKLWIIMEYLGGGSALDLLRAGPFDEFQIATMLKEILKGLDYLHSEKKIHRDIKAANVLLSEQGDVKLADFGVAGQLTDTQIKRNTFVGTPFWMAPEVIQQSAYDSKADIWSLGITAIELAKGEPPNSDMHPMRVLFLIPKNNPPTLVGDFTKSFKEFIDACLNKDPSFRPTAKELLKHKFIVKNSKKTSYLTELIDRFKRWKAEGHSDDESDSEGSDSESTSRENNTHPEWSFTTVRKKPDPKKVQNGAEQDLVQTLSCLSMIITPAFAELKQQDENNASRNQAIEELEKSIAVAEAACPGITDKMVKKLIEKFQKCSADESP
Sequence of Mitogen-activated protein kinase kinase kinase 21 (Homo sapiens) (Q5TCX8 whole entry): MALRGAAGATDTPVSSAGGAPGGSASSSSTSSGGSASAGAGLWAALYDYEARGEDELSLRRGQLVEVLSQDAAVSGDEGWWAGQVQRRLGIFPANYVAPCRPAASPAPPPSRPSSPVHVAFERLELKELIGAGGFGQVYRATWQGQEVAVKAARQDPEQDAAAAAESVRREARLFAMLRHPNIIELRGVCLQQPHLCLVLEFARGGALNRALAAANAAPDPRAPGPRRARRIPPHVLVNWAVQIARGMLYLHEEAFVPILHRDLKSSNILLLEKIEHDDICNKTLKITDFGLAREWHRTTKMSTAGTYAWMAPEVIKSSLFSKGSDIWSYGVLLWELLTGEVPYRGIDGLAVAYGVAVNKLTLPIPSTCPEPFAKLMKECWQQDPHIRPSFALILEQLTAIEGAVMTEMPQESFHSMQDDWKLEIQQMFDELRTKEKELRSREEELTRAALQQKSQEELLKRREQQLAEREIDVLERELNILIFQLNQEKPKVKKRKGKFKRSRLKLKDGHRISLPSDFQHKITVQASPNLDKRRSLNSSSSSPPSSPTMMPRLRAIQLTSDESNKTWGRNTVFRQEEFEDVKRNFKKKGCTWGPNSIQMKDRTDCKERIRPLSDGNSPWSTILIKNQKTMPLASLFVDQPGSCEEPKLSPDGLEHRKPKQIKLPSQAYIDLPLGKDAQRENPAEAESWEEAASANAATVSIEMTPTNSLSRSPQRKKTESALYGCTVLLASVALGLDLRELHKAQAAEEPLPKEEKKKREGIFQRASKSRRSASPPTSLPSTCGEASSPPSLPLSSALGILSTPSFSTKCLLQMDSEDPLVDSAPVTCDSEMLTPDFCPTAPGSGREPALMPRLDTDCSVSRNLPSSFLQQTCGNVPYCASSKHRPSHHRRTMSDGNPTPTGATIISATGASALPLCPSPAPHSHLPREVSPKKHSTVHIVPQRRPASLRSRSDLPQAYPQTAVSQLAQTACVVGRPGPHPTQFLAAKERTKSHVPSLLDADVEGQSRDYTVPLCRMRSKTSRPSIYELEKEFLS
Sequence of Proto-oncogene tyrosine-protein kinase receptor Ret (Homo sapiens), P07949 [V804L] (P07949 whole entry V804L): as the sequence (P07949 whole entry) above, with V804L counted along it
Sequence of Proto-oncogene tyrosine-protein kinase receptor Ret (Homo sapiens), P07949 [V804M] (P07949 whole entry V804M): as the sequence (P07949 whole entry) above, with V804M counted along it

For `CCC(=O)N1CCN(c2ccc(-n3c(=O)ccc4cnc5ccc(-c6cnc7ccccc7c6)cc5c43)cc2C(F)(F)F)CC1`, the % of control [1] was 51%, the % of control [2] was 69% and the % of control [3] was 44%. The % of control [4] was 66%.

In the case of `Cc1ccc(-c2ccc3c(ccc4sc5c(c43)NC[C@@H](C)NC5=O)n2)cn1`, the % of inhibition [5] is reported as -12%.

For `C=CC(=O)Nc1ccc(C(=O)Nc2[nH]nc3c2CN(C(=O)N[C@H](CN(C)C)c2ccccc2)C3(C)C)cc1`, the % of engagement [6] was -4.1% and the % of engagement [7] was 2.8%.

`CC[C@@H]1[C@H](F)C(=O)N[C@@H]1COc1nccc2cc(C(N)=O)c(OC)cc12` [ZIMLOVISERTIB] was tested, and the % of inhibition [8] was -3.8%, the % of inhibition ([9]; at 0.01 µM) was 1.9% and the % of inhibition ([9]; at 0.04 µM) was -4%. It also gave a % of inhibition ([9]; at 0.2 µM) of 12.3%, a % of inhibition ([9]; at 1 µM) of -8.5% and a % of inhibition ([9]; at 5 µM) of 6.3%. It also gave a % of inhibition [10] of 4.83%.

With `COc1cc(Nc2nc(C)cc(-c3cnn4nc(OC)ccc34)n2)cc(C(F)(F)F)c1` the % of control [11] was 78%.

In the case of `Cc1cnc(Nc2ccc(F)cc2Cl)nc1-c1c[nH]c(C(=O)N[C@H](CO)c2cccc(Cl)c2)c1`, the % of inhibition [12] is reported as 3%.

`N#Cc1cccc(-c2c[nH]c3ncnc(N4CCOCC4)c23)c1` was tested, and the % of inhibition [13] was 13%.
